Results from ChEMBL document CHEMBL6121036, “Evaluation of Cereblon-Directing Warheads for the Development of Orally Bioavailable PROTACs” (J Med Chem, 2025).
Values after ≈ are worked out from the molar mass of the structure shown. Active and inactive are the calls of the source. The calls are words filed in the database; no cut-off is given here.

Columns and labels:
[1] = Effect on PLAU level in human MV4-11 cells assessed as fold change at 100 nM measured after 4 hrs; format: functional
[2] = Effect on BRD3 level in human MV4-11 cells assessed as fold change at 100 nM measured after 4 hrs; format: functional
[3] = Effect on CCNF level in human MV4-11 cells assessed as fold change at 100 nM measured after 4 hrs; format: functional
[4] = target: Protein cereblon/Bromodomain-containing protein 2 (Homo sapiens) (UniProt P25440+Q96SW2); test: PROTAC activity at CRBN/Hibit-tagged CRISPR BRD2 (unknown origin) expressed in HEK293 cells coexpressing LgBiT assessed as degradation of BRD2 by […] glo-max assay relative to control; format: cell-based
[5] = Effect on FGL2 level in human MV4-11 cells assessed as fold change at 100 nM measured after 4 hrs; format: functional
HD-MB03 = test: Cytotoxicity against human HD-MB03 cells assessed as reduction in cell viability incubated for 72 hrs by cell-titer glo assay; format: functional, cell-based; conditions: HD-MB03, 72 h
[6] = Effect on MYC level in human MV4-11 cells assessed as fold change at 100 nM measured after 4 hrs; format: functional
[7] = Effect on BRD2 level in human MV4-11 cells assessed as fold change at 100 nM measured after 4 hrs; format: functional
[8] = target: T1, Protein cereblon/Bromodomain-containing protein 4 (Homo sapiens, UniProt O60885+Q96SW2); test: PROTAC activity at CRBN/Hibit-tagged BRD4 (unknown origin) expressed in HEK293 cells co-expressing LgBiT assessed as degradation of BRD4 incubated for 24 hrs by […] glo-max assay; format: cell-based
[9] = target: Protein cereblon/Bromodomain-containing protein 4/DNA damage-binding protein 1 (Homo sapiens) (UniProt O60885+Q96SW2+Q16531); test: Binding affinity to his-tagged CRBN/DDB1/GST-tagged BRD4 (49 to 170 residues)(unknown origin) assessed as ternary complex formation (AUC) incubated for 1 hr by luminescence based Alphascreen assay; format: protein assay
MV4-11 = test: Cytotoxicity against human MV4-11 cells assessed as reduction in cell viability incubated for 72 hrs by cell-titer glo assay; format: functional, cell-based; conditions: MV4-11, 72 h
[10] = Effect on NOP53 level in human MV4-11 cells assessed as fold change at 100 nM measured after 4 hrs; format: functional
[11] = Effect on CDC42EP3 level in human MV4-11 cells assessed as fold change at 100 nM measured after 4 hrs; format: functional
[12] = Effect on BRD4 level in human MV4-11 cells assessed as fold change at 100 nM measured after 4 hrs; format: functional
[13] = Effect on ZBTB21 level in human MV4-11 cells assessed as fold change at 100 nM measured after 4 hrs; format: functional
[14] = Effect on AURKA level in human MV4-11 cells assessed as fold change at 100 nM measured after 4 hrs; format: functional
[15] = Effect on CCND3 level in human MV4-11 cells assessed as fold change at 100 nM measured after 4 hrs; format: functional
[16] = Effect on FYTTD1 level in human MV4-11 cells assessed as fold change at 100 nM measured after 4 hrs; format: functional
[17] = target: T1, Protein cereblon/Bromodomain-containing protein 4; test: PROTAC activity at CRBN/Hibit-tagged BRD4 (unknown origin) expressed in HEK293 cells co-expressing LgBiT assessed as degradation rate incubated for 24 hrs by […] glo-max assay; format: cell-based
[18] = Stability in mouse plasma assessed as half life by UPLC-MS/MS analysis; format: ADME, cell-free
[19] = Kinetic aqueous solubility of the compound at pH 7.4; format: physicochemical; conditions: read-out: Kinetic_solubility
[20] = Effect on PLK1 level in human MV4-11 cells assessed as fold change at 100 nM measured after 4 hrs; format: functional
[21] = target: T1, Protein cereblon/Bromodomain-containing protein 4; test: PROTAC activity at CRBN/Hibit-tagged BRD4 (unknown origin) expressed in HEK293 cells co-expressing LgBiT assessed as degradation of BRD4 incubated for 24 hrs by […] glo-max assay relative to control; format: cell-based
[22] = Effect on MCL1 level in human MV4-11 cells assessed as fold change at 100 nM measured after 4 hrs; format: functional
[23] = Effect on NSA2 level in human MV4-11 cells assessed as fold change at 100 nM measured after 4 hrs; format: functional
[24] = Effect on RNF166 level in human MV4-11 cells assessed as fold change at 100 nM measured after 4 hrs; format: functional
[25] = Metabolic stability in mouse liver microsomes assessed as half life; format: ADME, Microsome; conditions: liver microsomes
[26] = Effect on ZFP36L2 level in human MV4-11 cells assessed as fold change at 100 nM measured after 4 hrs; format: functional
[27] = Effect on TP53 level in human MV4-11 cells assessed as fold change at 100 nM measured after 4 hrs; format: functional

For `Cc1sc2c(c1C)C(c1ccc(Cl)cc1)=N[C@@H](CC(=O)N1CCC(CN3CCN(c4ccc(NC5CCC(=O)NC5=O)cc4)CC3)CC1)c1nnc(C)n1-2` (some centres undefined), the “fold change (FC)” value [1] was -0.73, the “fold change (FC)” value [2] was -2.78 and the “fold change (FC)” value [3] was -0.38. For the same compound, the Activity [4] was under 50%, the “fold change (FC)” value [5] was -1.19 and the IC50 (HD-MB03) was 31.4 nM. The “fold change (FC)” value [6] was -1.77, the “fold change (FC)” value [7] was -1.8 and the DC50 [8] was 6.51 nM. For the same compound, the Activity [9] was “Active”, the IC50 (MV4-11) was 2.92 nM and the “fold change (FC)” value [10] was -0.49. For the same compound, the “fold change (FC)” value [11] was -1, the “fold change (FC)” value [12] was -2.24 and the “fold change (FC)” value [13] was -0.14. The “fold change (FC)” value [14] was -0.55, the “fold change (FC)” value [15] was -0.56 and the “fold change (FC)” value [16] was -0.84. For the same compound, the Activity [17] was 0.036 fRLU/hr, the half-life [18] was 12.9 h and the solubility kinetic [19] was 5.7 µM (≈ 4.38 µg/mL). For the same compound, the “fold change (FC)” value [20] was -0.56, the Emax [21] was 34.9% and the “fold change (FC)” value [22] was -0.49. The “fold change (FC)” value [23] was -0.65, the “fold change (FC)” value [24] was -0.29 and the half-life [25] was 2.45 h. For the same compound, the “fold change (FC)” value [26] was -0.75 and the “fold change (FC)” value [27] was 1.12.
